Experiments:
Type in all cases: in vivo
Veronica = assay: Pre-emergence test/greenhouse, Veronica; conditions: 504 h, 500 g of ai./ha, after three weeks, read-out: degree of damage, Veronica
Description: (§1) Solvent: 5 parts by weight of acetone
(§2) Emulsifier: 1 part by weight of alkylaryl polyglycol ether
(§3) To produce a suitable preparation of active compound, 1 part by weight of active compound is mixed with the stated amount of solvent, the stated amount of emulsifier is added and the concentrate is diluted with water to the desired concentration.
(§4) Seeds of the test plants are sown in normal soil. After about 24 hours, the soil is sprayed with the preparation of active compound such that the particular amount of active compound desired is applied per unit area. The concentration of the spray liquor is chosen so that the particular amount of active compound desired is applied in 1000 liters of water per hectare.
(§5) After three weeks, the degree of damage to the plants is rated in % damage in comparison to the development of the untreated control.
(§6) 0%=no effect (like untreated control)

Solanum [1] = assay: Pre-emergence test/greenhouse, Solanum; conditions: 500 g of ai./ha, after three weeks
Description: as §1, §2, §3, §4, §5, §6

Digitaria [2] = assay: Pre-emergence test/greenhouse, Digitaria; conditions: 500 g of ai./ha, after three weeks
Description: as §1, §2, §3, §4, §5, §6

Chenopodium = assay: Pre-emergence test/greenhouse, Chenopodium; conditions: 500 g of ai./ha, after three weeks
Description: as §1, §2, §3, §4, §5, §6

weeds [3] = assay: Pre-emergence test, activity against weeds; conditions: result in words
Description: as §1, §2, §3, §4, §5, §6

Viola [4] = assay: Post-emergence test/greenhouse, Viola; conditions: 500 g of ai./ha, after three weeks
Description: as §1, §2, §3
(§7) Test plants of a height of 5-15 cm are sprayed with the preparation of active compound such that the particular amounts of active compound desired are applied per unit area. The concentration of the spray liquor is chosen so that the particular amounts of active compound desired are applied in 1000 l of water/ha.
as §5, §6

Ipomoea = assay: Post-emergence test/greenhouse, Ipomoea; conditions: 500 g of ai./ha, after three weeks
Description: as §1, §2, §3, §7, §5, §6

[5] = system: crop plants, such as, for example, maize, barley and wheat; assay: Post-emergence test, tolerance by crop plants; conditions: result in words
Description: as §1, §2, §3, §7, §5, §6

[6] = system: crop plants, such as, for example, cotton, maize, wheat and barley; assay: Pre-emergence test, tolerance by crop plants; conditions: result in words
Description: as §1, §2, §3, §4, §5, §6

Datura = assay: Post-emergence test/greenhouse, Datura; conditions: 500 g of ai./ha, after three weeks
Description: as §1, §2, §3, §7, §5, §6

weeds [7] = assay: Post-emergence test, activity against weeds; conditions: result in words
Description: as §1, §2, §3, §7, §5, §6

barley = assay: Post-emergence test/greenhouse, barley; conditions: 500 g of ai./ha, after three weeks
Description: as §1, §2, §3, §7, §5, §6

wheat [8] = assay: Post-emergence test/greenhouse, wheat; conditions: 500 g of ai./ha, after three weeks
Description: as §1, §2, §3, §7, §5, §6

Digitaria [9] = assay: Post-emergence test/greenhouse, digitaria; conditions: 500 g of ai./ha, after three weeks
Description: as §1, §2, §3, §7, §5, §6

Solanum [10] = assay: Post-emergence test/greenhouse, Solanum; conditions: 500 g of ai./ha, after three weeks
Description: as §1, §2, §3, §7, §5, §6

wheat [11] = assay: Pre-emergence test/greenhouse, wheat; conditions: 500 g of ai./ha, after three weeks
Description: as §1, §2, §3, §4, §5, §6

Alopecurus = assay: Pre-emergence test/greenhouse, Alopecurus; conditions: after three weeks
Description: as §1, §2, §3, §4, §5, §6

soya = assay: Pre-emergence test/greenhouse, soya; conditions: 500 g of ai./ha, after three weeks
Description: as §1, §2, §3, §4, §5, §6

Setaria [12] = assay: Post-emergence test/greenhouse, Setaria; conditions: 1000 g of ai./ha, after three weeks
Description: as §1, §2, §3, §7, §5, §6

maize [13] = assay: Post-emergence test/greenhouse, maize; conditions: 1000 g of ai./ha, after three weeks
Description: as §1, §2, §3, §7, §5, §6

Amaranthus [14] = assay: Post-emergence test/greenhouse, Amaranthus; conditions: 1000 g of ai./ha, after three weeks
Description: as §1, §2, §3, §7, §5, §6

Abutilon = assay: Post-emergence test/greenhouse, Abutilon; conditions: 1000 g of ai./ha, after three weeks
Description: as §1, §2, §3, §7, §5, §6

Sinapis [15] = assay: Post-emergence test/greenhouse, Sinapis; conditions: 1000 g of ai./ha, after three weeks
Description: as §1, §2, §3, §7, §5, §6

maize [16] = assay: Pre-emergence test/greenhouse, maize; conditions: after three weeks
Description: as §1, §2, §3, §4, §5, §6

Matricaria = assay: Pre-emergence test/greenhouse, Matricaria; conditions: 500 g of ai./ha, after three weeks
Description: as §1, §2, §3, §4, §5, §6

Sinapis [17] = assay: Pre-emergence test/greenhouse, Sinapis; conditions: 1000 g of ai./ha, after three weeks
Description: as §1, §2, §3, §4, §5, §6

Amaranthus [18] = assay: Pre-emergence test/greenhouse, Amaranthus; conditions: after three weeks
Description: as §1, §2, §3, §4, §5, §6

Setaria [19] = assay: Pre-emergence test/greenhouse, Setaria; conditions: 500 g of ai./ha, after three weeks
Description: as §1, §2, §3, §4, §5, §6

Viola [20] = assay: Pre-emergence test/greenhouse, Viola; conditions: 500 g of ai./ha, after three weeks
Description: as §1, §2, §3, §4, §5, §6

SMILES: CCC(CCc1ccc(Br)s1)Nc1nc(N)nc(C(C)F)n1 (stereo not drawn) [drawing 236]
- pest or weed control at 500 g/ha (Veronica): 100%
- degree of damage, Solanum (Solanum [1]): 100%
- degree of damage, Digitaria (Digitaria [2]): 100%
- degree of damage, Chenopodium (Chenopodium): 100%

SMILES: CCC(CCc1sccc1Br)Nc1nc(N)nc(C(C)(C)F)n1 (stereo not drawn) [drawing 240]
- pest or weed control at 500 g/ha (Veronica): 100%

SMILES: CCC(CCc1cc(Br)cs1)Nc1nc(NC(C)=O)nc(C(C)F)n1 (racemic) [Example 6]
- activity against weeds (weeds [3]): strong activity against weeds
- degree of damage, Viola (Viola [4]): 100%
- degree of damage, Ipomoea (Ipomoea): 100%
- tolerance by crop plants [5]: tolerated well
- tolerance by crop plants [6]: largely tolerated well
- degree of damage, Datura (Datura): 100%
- activity against weeds (weeds [7]): strong activity against weeds
- degree of damage, barley (barley): 0%
- degree of damage, wheat (wheat [8]): 0%
- degree of damage, Digitaria (Digitaria [9]): 90%
- degree of damage, Solanum (Solanum [10]): 100%

SMILES: CCC(CCc1cc(Br)cs1)Nc1nc(NC(C)=O)nc(C(C)F)n1 (stereo not drawn) [drawing 238]
- pest or weed control at 500 g/ha (Veronica): 100%
- degree of damage, Chenopodium (Chenopodium): 100%

SMILES: CCC(CCc1cc(Br)cs1)Nc1nc(NC(C)=O)nc(C(C)(C)F)n1 (stereo not drawn) [drawing 229]
- degree of damage, wheat (wheat [11]): 0%
- degree of damage, Alopecurus (Alopecurus; 500 g of ai./ha): 95%

SMILES: CCC(CCc1cc(C)sc1C)Nc1nc(N)nc(C(C)F)n1 (stereo not drawn) [drawing 263]
- degree of damage, soya (soya): 0%

SMILES: CC(CCCc1cccs1)Nc1nc(N)nc(C(C)(C)F)n1 (stereo not drawn) [Example 1, 2-amino-4-(1-fluoro-1-methyl-ethyl)-6-(1-methyl-4-(thien-2-yl)-butylamino)-1,3,5-triazine]
- activity against weeds (weeds [3]): strong activity against weeds
- degree of damage, Setaria (Setaria [12]): 80%
- tolerance by crop plants [5]: tolerated well
- tolerance by crop plants [6]: largely tolerated well
- degree of damage, maize (maize [13]): 30%
- activity against weeds (weeds [7]): strong activity against weeds
- degree of damage, Amaranthus (Amaranthus [14]): 100%
- degree of damage, Abutilon (Abutilon): 95%
- degree of damage, Sinapis (Sinapis [15]): 100%

SMILES: CCC(CCc1cc(C)sc1C)Nc1nc(NC(C)=O)nc(C(C)(C)F)n1 (stereo not drawn) [drawing 234]
- degree of damage, maize (maize [16]; 500 g of ai./ha): 0%
- degree of damage, wheat (wheat [11]): 0%

SMILES: CCC(CCc1sccc1Br)Nc1nc(NC(C)=O)nc(C(C)F)n1 (stereo not drawn) [drawing 252]
- degree of damage, Matricaria (Matricaria): 100%

SMILES: CC(CCCc1cccs1)Nc1nc(N)nc(C(C)(C)F)n1 (stereo not drawn) [drawing 225]
- degree of damage, maize (maize [16]; 1000 g of ai./ha): 0%
- degree of damage, Sinapis (Sinapis [17]): 90%
- degree of damage, Amaranthus (Amaranthus [18]; 1000 g of ai./ha): 95%
- degree of damage, Alopecurus (Alopecurus; 1000 g of ai./ha): 80%

SMILES: CCC(CCc1cc(Br)cs1)Nc1nc(NC(C)=O)nc(C(C)(C)F)n1 (stereo not drawn) [drawing 249]
- degree of damage, Setaria (Setaria [19]): 95%
- degree of damage, Viola (Viola [20]): 100%

SMILES: CCC(CCc1ccc(Br)s1)Nc1nc(N)nc(C(C)F)n1 (stereo not drawn) [drawing 226]
- degree of damage, maize (maize [16]; 500 g of ai./ha): 0%
- degree of damage, wheat (wheat [11]): 0%

SMILES: CCC(CCc1cc(C)sc1C)Nc1nc(NC(C)=O)nc(C(C)(C)F)n1 (stereo not drawn) [drawing 244]
- pest or weed control at 500 g/ha (Veronica): 100%

SMILES: CCC(CCc1sccc1Br)Nc1nc(N)nc(C(C)F)n1 (stereo not drawn) [drawing 241]
- pest or weed control at 500 g/ha (Veronica): 100%
- degree of damage, Solanum (Solanum [1]): 100%
- degree of damage, Digitaria (Digitaria [2]): 100%

SMILES: CCC(CCc1cc(C)sc1C)Nc1nc(NC(C)=O)nc(C(C)(C)F)n1 (stereo not drawn) [drawing 254]
- degree of damage, Viola (Viola [20]): 100%
- degree of damage, Matricaria (Matricaria): 95%

SMILES: CCC(CCc1sccc1Br)Nc1nc(NC(C)=O)nc(C(C)F)n1 (stereo not drawn) [drawing 232]
- degree of damage, wheat (wheat [11]): 0%
- degree of damage, Amaranthus (Amaranthus [18]; 500 g of ai./ha): 100%

SMILES: CCC(CCc1ccc(Br)s1)Nc1nc(N)nc(C(C)(C)F)n1 (stereo not drawn) [drawing 237]
- pest or weed control at 500 g/ha (Veronica): 100%
- degree of damage, Solanum (Solanum [1]): 100%
- degree of damage, Digitaria (Digitaria [2]): 100%
- degree of damage, Chenopodium (Chenopodium): 100%

SMILES: CCC(CCc1cc(Br)cs1)Nc1nc(NC(C)=O)nc(C(C)F)n1 (stereo not drawn) [drawing 228]
- degree of damage, maize (maize [16]; 500 g of ai./ha): 0%
